From US11708376B2 (VIRGINIA TECH INTELLECTUAL PROPERTIES, INC., priority 2018, dated 2023)

Test system: whole cells (NMuLi, C2Cl2, and L6 cells, isolated cardiomyocytes, human primary fibroblasts)
Test: Oxygen consumption rate (OCR) in whole cells, Seahorse XF-24 Flux Analyzer
Format: cell-based
Conditions: cell type for Table 1 not stated, read-out: OCR Activity (increase in OCR), binned EC50
Method: Biological activities of the compounds synthesized is determined by determining increase in oxygen consumption rate (OCR).
Oxygen consumption rate (OCR) in whole cells is measured in general accordance with the method of Kenwood B M et al. (Mol. Met. (2014) 3: 114-123).
OCR is measured using a Seahorse XF-24 Flux Analyzer (Seahorse Biosciences, North Billerica, Mass.). NMuLi, C2Cl2, and L6 cells are seeded in a Seahorse 24-well tissue culture plate at a density of 3.5×10^4 cells/well, isolated cardiomyocytes at a density of 4×10^4 cells/well, and human primary fibroblasts at a density of 1.1×10^4 cells/well. The cells are then allowed to adhere for 24 h. Prior to the assay, the media is changed to unbuffered DMEM containing pyruvate and glutamine (Gibco #12800-017, pH=7.4 at 37° C.) and the cells are equilibrated for 30 mins at 37° C. Compounds are injected during the assay and OCR is measured using 2 min measurement periods.
2-3 wells are used per condition and averaged over three plates (n=6-9). Statistical significance is determined by two-way ANOVA with Bonfenoni's posttest.
Activities are reported as binned EC50 values: A=5 μM or less; B=>5 to 20 μM; C=over 20 μM; NA=no effect.

Row | Compound | EC50
1 | FC(F)(F)c1ccc(Nc2nc3[nH]c(C(F)(F)F)nc3nc2Oc2ccc(C(F)(F)F)cc2)cc1 [Compound 2-47, 2-(trifluoromethyl)-5-(4-(trifluoromethyl)phenoxy)-N-(4-(trifluoromethyl)phenyl)-1H-imidazo[4,5-b]pyrazin-6-amine] | ≤ 5 µM
2 | COc1nc2nc(C(F)(F)F)[nH]c2nc1N(C)c1ccc(C(F)(F)F)cc1 [Compound 2-49, 5-methoxy-N-methyl-2-(trifluoromethyl)-N-(4-(trifluoromethyl)phenyl)-1H-imidazo[4,5-b]pyrazin-6-amine] | ≤ 5 µM
3 | Oc1nc2[nH]c(C(F)(F)F)nc2nc1Nc1cccc(C(F)(F)F)c1F [Compound 2-54, 5-((2-fluoro-3-(trifluoromethyl)phenyl)amino)-2-(trifluoromethyl)-1H-imidazo[4,5-b]pyrazin-6-ol] | > 20 µM
4 | Oc1nc2[nH]c(C(F)(F)F)nc2nc1Nc1ccc(C(F)(F)F)cc1 [Compound 2-55, 5-((4-(trifluoromethyl)phenyl)amino)-2-(trifluoromethyl)-1H-imidazo[4,5-b]pyrazin-6-ol] | > 20 µM
5 | COc1nc2[nH]c(-c3ccccc3)nc2nc1Nc1ccc(OC(F)(F)F)cc1 [Compound 2-60, 6-methoxy-2-phenyl-N-(4-(trifluoromethoxy)phenyl)-1H-imidazo[4,5-b]pyrazin-5-amine] | > 20 µM
6 | COc1nc2nc(C(F)(F)F)[nH]c2cc1Nc1ccccc1F [Compound 2-61, N-(2-fluorophenyl)-5-methoxy-2-(trifluoromethyl)-1H-imidazo[4,5-b]pyridin-6-amine] | > 20 µM
7 | COc1nc2nc(C(F)(F)F)[nH]c2cc1Nc1ccc(OC(F)(F)F)cc1 [Compound 2-62, 5-methoxy-N-(4-(trifluoromethoxy)phenyl)-2-(trifluoromethyl)-1H-imidazo[4,5-b]pyridin-6-amine] | 5 to 20 µM
8 | COc1nc2nc(C(F)(F)F)[nH]c2cc1Nc1cccc(OC(F)(F)F)c1 [Compound 2-63, 5-methoxy-N-(3-(trifluoromethoxy)phenyl)-2-(trifluoromethyl)-1H-imidazo[4,5-b]pyridin-6-amine] | > 20 µM
9 | COc1nc2nc(C(F)(F)F)[nH]c2cc1Nc1ccc(C(F)(F)F)cc1 [Compound 2-64, 5-methoxy-2-(trifluoromethyl)-N-(4-(trifluoromethyl)phenyl)-1H-imidazo[4,5-b]pyridin-6-amine] | 5 to 20 µM
10 | COc1nc2nc(C(F)(F)F)[nH]c2cc1Nc1cccc(C(F)(F)F)c1 [Compound 2-65, 5-methoxy-2-(trifluoromethyl)-N-(3-(trifluoromethyl)phenyl)-1H-imidazo[4,5-b]pyridin-6-amine] | > 20 µM
11 | COc1nc2nc(C(F)(F)F)[nH]c2cc1Nc1ccc(OC(F)(F)F)cc1F [Compound 2-66, N-(2-fluoro-4-(trifluoromethoxy)phenyl)-5-methoxy-2-(trifluoromethyl)-1H-imidazo[4,5-b]pyridin-6-amine] | ≤ 5 µM
12 | COc1nc2[nH]c(C(F)(F)F)nc2cc1Nc1cccc(F)c1 [Compound 2-67, N-(3-fluorophenyl)-5-methoxy-2-(trifluoromethyl)-3H-imidazo[4,5-b]pyridin-6-amine] | 5 to 20 µM
13 | COc1nc2[nH]c(C(F)(F)F)nc2cc1Nc1cccc(F)c1F [Compound 2-68, N-(2,3-Difluorophenyl)-5-methoxy-2-(trifluoromethyl)-3H-imidazo[4,5-b]pyridin-6-amine] | 5 to 20 µM
14 | COc1ccc(Nc2cc3nc(C(F)(F)F)[nH]c3nc2OC)cc1 [Compound 2-69, 5-methoxy-N-(4-methoxyphenyl)-2-(trifluoromethyl)-3H-imidazo[4,5-b]pyridin-6-amine] | ≤ 5 µM
15 | COc1nc2[nH]c(C(F)(F)F)nc2cc1Nc1cccc(C(C)(C)C)c1 [Compound 2-70, N-(3-(tert-butyl)phenyl)-5-methoxy-2-(trifluoromethyl)-3H-imidazo[4,5-b]pyridin-6-amine] | > 20 µM
